Test results published in patent US10278957B2, “Opioid agonist peptides and uses thereof” (Protagonist Therapeutics, Inc., priority 2017, dated 2019).
Square brackets hold non-standard residues; d marks the D form. Peptide text beside a SMILES is read from it. Dmt = Cc1cc(O)cc(C)c1C[C@H](N)C(=O)O; β3hF = N[C@H](CC(=O)O)Cc1ccccc1; Sar = CNCC(=O)O

Tests used:
μ-opioid receptor (MOR) = target: T1, μ-opioid receptor (MOR) (Homo sapiens, UniProt P35372); test: MOR agonist cAMP assay (HitHunter cAMP, forskolin-stimulated); assay type: cell-based
T1 construct: host or cells: cAMP Hunter CHO-K1 OPRM1 Gαi cell line
Method in brief: (§1)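 CHO-K1 Gαi cells expressing OPRM1 or OPRD1 were exposed 30 min at 37° C to 11-point threefold agonist dilutions, in duplicate, with 20 uM forskolin final. cAMP quantified by EFC chemiluminescent competitive immunoassay against cAMP standards. EC50 by four-parameter Hill nonlinear regression.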

[1] = SIF assay (stability in simulated intestinal fluid); assay type: in vitro ADME; conditions: for half-life at 20 μM: simulated intestinal fluid (SIF) with pancreatin, simulated intestinal fluid, pH 6.8, pancreatin, 37° C.
Description: SIF was prepared by adding 6.8 g of monobasic potassium phosphate and 10.0 g of pancreatin to 1.0 L of water. After dissolution, the pH was adjusted to 6.8 using NaOH. DMSO stocks (2 mM) were prepared for each of the opioid agonist peptides. Aliquots of the DMSO solutions were dosed into […], each containing 0.5 mL of SIF, which was pre-warmed to 37° C. The final opioid agonist peptide concentration was 20 μM. The vials were kept in a benchtop Thermomixer® for the duration of the experiment. At each timepoint (0, 5, 10, 20, 40, 60, or 360 minutes or 24 hours), 1.0 mL of acetonitrile containing 1% formic acid was added to one vial to terminate the reaction. Samples were stored at 4° C. until the end of the experiment. After the final timepoint was sampled, the tubes were mixed and then centrifuged at 3,000 rpm for 10 minutes. Aliquots of the supernatant were removed, diluted 1:1 into distilled water containing an internal standard, and analyzed by LCMS/MS. The percent of the opioid agonist peptide remaining at each timepoint was calculated based on the peak area response ratio of opioid agonist peptide to the internal standard. Time 0 was set to 100%, and all later timepoints were calculated relative to time 0. Half-lives were calculated by fitting to a first-order exponential decay equation using Graph pad.

[2] = system: gastro intestinal motility; test: Gastro Intestinal Motility Charcoal Transit Assay; assay type: in vivo; conditions: Table 4; orally dosed; charcoal transit
Description: Animals were treated with 0.2 mL croton oil 96 and 72 hours before the gastro intestinal transit (GIT) assay. Animals were fasted overnight prior to charcoal meal dosing. Test and control articles were administered (PO, IP) followed by an oral dose of aqueous suspension of 5% charcoal in 10% gum arabic. […] Charcoal meal test were given 30 min post-test article dose. Twenty minutes after administration of the charcoal test meal, animals were euthanized via CO2 inhalation followed by cervical dislocation, and the small and large intestines were examined to evaluate GI transit and motility. GI transit is expressed as a percentage of the distance traveled by the charcoal test meal divided by the length of the intestine.

[3] = SGF assay (stability in simulated gastric fluid); assay type: in vitro ADME; conditions: pig, simulated gastric fluid (SGF) with porcine pepsin, pH 2, pepsin, 37° C.
Description: SGF was prepared by adding 20 mg NaCl, 32 mg porcine pepsin (MP Biochemicals, catalog 02102599), and 70 μl HCl to 10 ml water (final pH=2). Aliquots of SGF (0.5 ml each) were pre-warmed at 37° C. To start the reaction, 1 μl of opioid agonist peptide stock solution (10 mM in DMSO) was added to 0.5 ml SGF and thoroughly mixed such that the final peptide concentration was 20 μM. The reactions were incubated at 37° C. with gentle shaking.
At each timepoint (0, 15, 30, 60 min) 50 µl aliquots were removed and added to 200 ul of acetonitrile containing 0.1% formic acid to quench the reaction. Samples were stored at 4° C. until the end of the experiment and centrifuged at 10,000 rpm for 5 minutes. Aliquots of the supernatant were removed, diluted 1:1 into distilled water containing internal standard, and analyzed by LCMS/MS. The percent of the opioid agonist peptide remaining at each timepoint was calculated based on the peak area response ratio of the opioid agonist peptide to the internal standard. Time 0 was set to 100%, and all later timepoints were calculated relative to time 0. Half-lives were calculated by fitting to a first-order exponential decay equation using GraphPad.

δ-opioid receptor (DOR) = target: T2, δ-opioid receptor (DOR) (Homo sapiens, UniProt P41143); test: DOR agonist cAMP assay (HitHunter cAMP, forskolin-stimulated); assay type: cell-based
T2 construct: host or cells: cAMP Hunter CHO-K1 OPRD1 Gαi cell line
Method in brief: as §1

visceral pain (writhing) = test: Acetic Acid or Acetylcholine Writhing Assay; assay type: in vivo; conditions: PO; FIGS. 3A and 3B
Description: Animals were fasted overnight prior to the start of the assay. Test and control article doses, ranging from 3-50 mg/kg, were administered (PO) followed by an IP injection of acetic acid (1.0%) or acetylcholine (10 mg/kg), and immediately placed in a viewing chamber. […] Writhing (abdominal constriction) was defined as a contraction of the abdominal musculature accompanied by arching of the back and extension of the limbs. Latency to first writhe and total number of writhes were recorded. Test articles included oral eluxadoline and two illustrative opioid peptides disclosed herein, Peptide A and Peptide D; and control articles included loperamide and morphine

T2 sequence (P41143 whole entry): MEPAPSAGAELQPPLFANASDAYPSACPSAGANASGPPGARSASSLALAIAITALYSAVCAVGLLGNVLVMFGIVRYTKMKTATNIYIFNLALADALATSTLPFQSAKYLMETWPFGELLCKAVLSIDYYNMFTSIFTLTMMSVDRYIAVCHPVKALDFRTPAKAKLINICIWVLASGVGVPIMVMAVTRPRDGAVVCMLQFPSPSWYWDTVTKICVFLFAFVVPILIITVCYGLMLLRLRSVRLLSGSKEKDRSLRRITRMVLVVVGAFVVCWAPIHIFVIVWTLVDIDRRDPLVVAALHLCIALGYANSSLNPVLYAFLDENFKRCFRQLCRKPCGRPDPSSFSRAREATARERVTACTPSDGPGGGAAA
T1 sequence (P35372 whole entry): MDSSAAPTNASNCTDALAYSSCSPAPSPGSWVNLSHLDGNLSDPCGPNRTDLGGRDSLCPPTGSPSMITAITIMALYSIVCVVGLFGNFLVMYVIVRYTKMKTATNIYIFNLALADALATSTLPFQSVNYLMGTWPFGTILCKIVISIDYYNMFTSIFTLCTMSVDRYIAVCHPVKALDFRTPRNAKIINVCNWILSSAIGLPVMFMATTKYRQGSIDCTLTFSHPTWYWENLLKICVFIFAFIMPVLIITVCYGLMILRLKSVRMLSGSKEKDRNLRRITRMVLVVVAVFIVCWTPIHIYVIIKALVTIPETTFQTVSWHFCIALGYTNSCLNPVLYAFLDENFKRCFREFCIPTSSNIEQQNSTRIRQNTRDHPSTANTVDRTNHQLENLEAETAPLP

| SMILES | Ratio (MOR EC50/DOR EC50) (μ-opioid receptor (MOR); Table 4, MOR EC50 divided by DOR EC50) | SIF (min) ([1]; Table 4, SIF half-life) | % inhibition of GI motility [2] | EC50 (μ-opioid receptor (MOR)) | half-life at 20 μM [3] | EC50 (δ-opioid receptor (DOR)) | half-life at 20 μM [1] | effect on pain (writhing study) (visceral pain (writhing)) |
| --- | --- | --- | --- | --- | --- | --- | --- | --- |
| Cc1cc(O)cc(C)c1C[C@H](N)C(=O)N[C@H](C)C(=O)N[C@@H](C)C(=O)N[C@H](CC(=O)N(C)CC(N)=O)Cc1ccccc1 [Seq. ID 66, DMT-(D)Ala-Ala-(b-homoPhe)-Sar-NH2] (H-[Dmt][dA]A[β3hF][Sar]-NH2) | * (for ratio, * indicates between 0.1 and 0.3) | **** (for SIF half-life values, **** indicates >1290) | * (for % inhibition of GI motility, * indicates between 30% and 50%) | – | – | – | – | – |
| Cc1cc(C(N)=O)cc(C)c1C[C@H](N)C(=O)N[C@H](C)C(=O)NCC(=O)N[C@H](CC(=O)N(C)CC(N)=O)Cc1ccccc1 [compound 70] | – | – | – | < 1 nM | 0.167 to 6 h | < 1 nM | > 24 h | – |
| Cc1cc(O)cc(C)c1C[C@H](N)C(=O)N[C@H](C)C(=O)NC(C)(C)C(=O)N[C@H](CC(=O)N(C)CC(N)=O)Cc1ccccc1 [compound 72] | – | – | – | < 1 nM | 0.167 to 6 h | < 1 nM | > 24 h | – |
| Cc1cc(C(N)=O)cc(C)c1C[C@H](N)C(=O)N[C@@H](C(=O)NCC(=O)N[C@H](CC(=O)N(C)CC(N)=O)Cc1ccccc1)[C@H](C)O [compound 76] | – | – | – | 1 to 10 nM | 0.167 to 6 h | < 1 nM | > 24 h | – |
| Cc1cc(C(N)=O)cc(C)c1C[C@H](N)C(=O)N[C@H](C)C(=O)NCC(=O)N[C@H](CC(=O)N(C)CC(=O)O)Cc1ccccc1 [compound 79] | – | – | – | < 1 nM | > 24 h | < 1 nM | > 24 h | – |
| Cc1cc(O)cc(C)c1C[C@H](N)C(=O)NCC(=O)NCC(=O)N[C@H](CC(=O)N(C)CC(N)=O)Cc1ccccc1 [compound 81] (H-[Dmt]GG[β3hF][Sar]-NH2) | – | – | – | < 1 nM | > 24 h | < 1 nM | > 24 h | – |
| Cc1cc(O)cc(C)c1C[C@H](N)C(=O)N[C@@H](C(=O)NCC(=O)N[C@H](CC(=O)N(C)CC(N)=O)Cc1ccccc1)[C@H](C)O [compound 82] | – | – | – | < 1 nM | > 24 h | < 1 nM | > 24 h | – |
| Cc1cc(O)cc(C)c1C[C@H](N)C(=O)N[C@H](Cc1ccc(O)cc1)C(=O)NCC(=O)N[C@H](CC(=O)N(C)CC(N)=O)Cc1ccccc1 [compound 84] | – | – | – | < 1 nM | > 24 h | < 1 nM | > 24 h | – |
| Cc1cc(C(N)=O)cc(C)c1C[C@H](N)C(=O)N[C@H](Cc1ccc(O)cc1)C(=O)NCC(=O)N[C@H](CC(=O)N(C)CC(N)=O)Cc1ccccc1 [compound 85] | – | – | – | < 1 nM | 6 to 24 h | < 1 nM | > 24 h | – |
| Cc1cc(C(N)=O)cc(C)c1C[C@H](N)C(=O)N[C@H](C)C(=O)NCC(=O)N[C@H](CC(=O)N(C)[C@@H](CC(C)C)C(=O)O)Cc1ccccc1 [compound 92] | – | – | – | 1 to 10 nM | > 24 h | < 1 nM | > 24 h | – |
| Cc1cc(C(N)=O)cc(C)c1C[C@H](N)C(=O)N[C@H](C)C(=O)NCC(=O)N[C@H](CC(=O)N(C)[C@@H](C)C(=O)O)Cc1ccccc1 [compound 93] | – | – | – | < 1 nM | > 24 h | < 1 nM | > 24 h | – |
| Cc1cc(C(N)=O)cc(C)c1C[C@H](N)C(=O)N[C@H](C)C(=O)NCC(=O)N[C@H](CC(=O)N(C)[C@H](C(=O)O)C(C)C)Cc1ccccc1 [compound 96] | – | – | – | < 1 nM | > 24 h | < 1 nM | > 24 h | – |
| Cc1cc(C(N)=O)cc(C)c1C[C@H](N)C(=O)N[C@H](C)C(=O)NCC(=O)N[C@H](CC(=O)N(C)[C@H](C(=O)O)c1ccccc1)Cc1ccccc1 [compound 99] | – | – | – | < 1 nM | > 24 h | < 1 nM | > 24 h | – |
| CCCC[C@@H](C(=O)O)N(C)C(=O)C[C@H](Cc1ccccc1)NC(=O)CNC(=O)[C@@H](C)NC(=O)[C@@H](N)Cc1c(C)cc(C(N)=O)cc1C [compound 101] | – | – | – | 1 to 10 nM | > 24 h | < 1 nM | > 24 h | – |
| Cc1cc(C(N)=O)cc(C)c1C[C@H](N)C(=O)N[C@H](C)C(=O)NCC(=O)N[C@H](CC(=O)N(C)[C@@H](Cc1ccc(O)cc1)C(=O)O)Cc1ccccc1 [compound 102] | – | – | – | < 1 nM | > 24 h | < 1 nM | > 24 h | – |
| Cc1cc(O)cc(C)c1C[C@H](N)C(=O)N[C@H](C)C(=O)NCC(=O)N[C@H](CC(=O)N(C)[C@@H](C)C(=O)O)Cc1ccccc1 [compound 111] | – | – | – | < 1 nM | > 24 h | < 1 nM | > 24 h | – |
| Cc1cc(O)cc(C)c1C[C@H](N)C(=O)N[C@H](C)C(=O)NCC(=O)N[C@H](CC(=O)N(CC(N)=O)Cc1ccccc1)Cc1ccccc1 [compound 118] | – | – | – | < 1 nM | > 24 h | < 1 nM | > 24 h | – |
| CCCC[C@@H](C(=O)O)N(C)C(=O)C[C@H](Cc1ccccc1C)NC(=O)CNC(=O)[C@@H](C)NC(=O)[C@@H](N)Cc1c(C)cc(O)cc1C [compound 140] | – | – | – | < 1 nM | 6 to 24 h | < 1 nM | 6 to 24 h | – |
| Cc1cc(O)cc(C)c1C[C@H](N)C(=O)N[C@H](C)C(=O)NCC(=O)N[C@H](CC(=O)N(C)[C@H](C(=O)O)C(C)C)Cc1ccccc1 [compound 161] | – | – | – | < 1 nM | > 24 h | < 1 nM | > 24 h | – |
| CCCC[C@@H](C(=O)O)N(C)C(=O)C[C@H](Cc1ccc(C)cc1)NC(=O)CNC(=O)[C@@H](C)NC(=O)[C@@H](N)Cc1c(C)cc(C(N)=O)cc1C [compound 165] | – | – | – | < 1 nM | > 24 h | < 1 nM | 0.167 to 6 h | – |
| CCCC[C@@H](C(=O)O)N(C)C(=O)C[C@H](Cc1ccc(F)cc1)NC(=O)CNC(=O)[C@@H](C)NC(=O)[C@@H](N)Cc1c(C)cc(C(N)=O)cc1C [compound 166] | – | – | – | < 1 nM | > 24 h | < 1 nM | > 24 h | – |
| CCCC[C@@H](C(=O)O)N(C)C(=O)C[C@H](Cc1cccc(Cl)c1)NC(=O)CNC(=O)[C@@H](C)NC(=O)[C@@H](N)Cc1c(C)cc(C(N)=O)cc1C [compound 167] | – | – | – | < 1 nM | > 24 h | < 1 nM | > 24 h | – |
| Cc1cc(O)cc(C)c1C[C@H](N)C(=O)N[C@H](CC(=O)O)C(=O)NCC(=O)N[C@H](CC(=O)NCC(N)=O)Cc1ccccc1 [compound 179] (H-[Dmt][dD]G[β3hF]G-NH2) | – | – | – | < 1 nM | > 24 h | < 1 nM | > 24 h | – |
| COc1ccc(CN(C(=O)[C@@H](N)Cc2c(C)cc(C(N)=O)cc2C)[C@@H](C)c2ncc(-c3ccccc3)[nH]2)cc1C(=O)O [eluxadoline, reference compound] | – | – | – | – | – | – | – | little effect on pain |
